Patent US12186283B2, “Bismuth-thiol compositions and methods of use” (Microbion Corporation, priority 2018, dated 2025)
In brackets after ≈: the same amount, converted by molar mass. Marks after values point to notes of the source that are not given here.

Experiments:
[1] = Particle size distribution of BisEDT microparticles; assay type: physicochemical; conditions: microparticles resuspended in 2% poloxamer 188, Nanosizer/Zetasizer Nano-S
Experimental: The dried particulate matter was characterized to assess the particle size properties. Briefly, microparticles were resuspended in 2% poloxamer 188 (Pluronic® F-68) (BASF, Mt. Olive, NJ) and the suspension was sonicated for 10 minutes in a water bath sonicator at standard setting prior to analysis using a Nanosizer/Zetasizer Nano-S particle analyzer (model ZEN1600 (without zeta-potential measuring capacity), Malvern Instruments, Worcestershire, UK) according to the manufacturer's recommendations.
It was observed that careful control of the reaction temperature and the rate of 1,2 ethanedithiol addition had pronounced impact on the BisEDT particle size distribution.

[2] = Phase 1 human clinical studies, topical administration; assay type: in vivo; conditions: humans
[3] = test system: S. aureus ATCC 29213; conditions: CLSI established QC range; cited from earlier work
[4] = Rat single-dose PK: whole blood BisEDT (bismuth by ICP-MS)
[5] = test system: M. abscessus / MABSC biofilms; assay type: cell-based, Mycobacterium abscessus complex; conditions: AMT0130-8, MABSC CF-isolate
[6] = test system: Acinetobacter baumannii; assay: Broth microdilution MIC (Example 11); assay type: cell-based; conditions: A. baumannii MMX 3373; Sensitive
[7] = test system: Staphylococcus aureus (MRSA); assay: Broth microdilution MIC (Example 11); assay type: cell-based; conditions: MRSA, LevR, CipR, EryR, OxR
[8] = test system: Enterococcus spp. (E. faecalis, E. faecium); assay: Broth microdilution MIC (Example 11); assay type: cell-based; conditions: enterococci incl. vancomycin-resistant E. faecalis and E. faecium
[9] = test system: S. pneumoniae (pneumococci); assay: Broth microdilution MIC (Example 11); assay type: cell-based, Streptococcus pneumoniae; conditions: pneumococci incl. multi-drug resistant
[10] = test system: beta-hemolytic streptococci (S. pyogenes, S. agalactiae); assay: Broth microdilution MIC (Example 11); assay type: cell-based, Streptococcus pyogenes, Streptococcus agalactiae
[11] = test system: E. coli ATCC 25922; assay: Broth microdilution MIC, QC organism (Example 13, Table 110); assay type: cell-based, Escherichia coli
Source text: (§1) MECs were only reported where observed.

[12] = test system: S. aureus ATCC 29213; assay: as above; assay type: cell-based, Staphylococcus aureus
Source text: as §1

[13] = test system: Achromobacter spp. biofilm; assay: Activity against biofilms; conditions: tested up to 250 μg/mL
[14] = test system: P. aeruginosa; assay: Checkerboard FIC assay, BisEDT with CF agents (Example 10); assay type: cell-based, Pseudomonas aeruginosa; conditions: agent alone, as observed during FIC testing
[15] = test system: Burkholderia cepacia complex; assay: as above; assay type: cell-based, Burkholderia spp.; conditions: agent alone, as observed during FIC testing
[16] = test system: Klebsiella pneumoniae; conditions: K. pneumoniae ATCC BAA-1705, QC organism; cited from earlier work
[17] = test system: P. aeruginosa; assay: Broth microdilution MIC (Example 10)
[18] = test system: Burkholderia cepacia complex; assay: Broth microdilution MIC (Example 10); conditions: initial MIC testing
[19] = test system: Escherichia coli; assay: Broth microdilution MIC (Example 12)
[20] = test system: Acinetobacter baumannii; assay: Broth microdilution MIC (Example 12)

In the case of C1C[S][Bi]([S]CC[S][Bi]2[S]CC[S]2)[S]1 [BisEDT, bismuth-1,2-ethanedithiol], the “peak VMD” value [1] is reported as “about 1.3 microns”, the concentration well-tolerated ([2]; administered topically for 6 hours) is reported as “up to 2500 μg/cm^2” and the concentration tolerated ([2]; topical, over 21 days continuous exposure to normal and abraded skin) is reported as “up to 75 μg/cm^2”. The “QC Range 24 hr” value [3] was 0.12-1, the “duration of initial distribution into tissues” value ([4]; IV dosing, biphasic pattern) was 18 h and the “systemic levels lower than in the lung” value ([4]; inhalation dosing) was “about 10 ×”. The blood exposure ([4]; inhalation dosing 100 μg/kg) was “sustained, moderate, blood exposure with relatively stable concentrations across time” and the blood concentrations ([4]; oral dosing 250 μg/kg) was “very low, but sustained and measurable”.

For CC(S)C(C)S.[Bi] (stereo not drawn) [BisBDT, bismuth-2,3-butanedithiol], the “reduction in biofilm cell viability” value [5] was “only very modest reductions in biofilm cell viability”, the MIC [6] was 0.5 µg/mL and the MIC ([7]; S. aureus MMX 5373, CCR) was at most 0.06 µg/mL. The MIC ([7]; S. aureus MMX 6311, CCR) was at most 0.06 µg/mL, the MIC ([7]; S. aureus MMX 9204) was at most 0.06 µg/mL and the MIC ([7]; S. aureus MMX 9205, CCR) was at most 0.06 µg/mL. The “MIC values (range across isolates)” value [8] was 0.25 to 1 µg/mL, the “MIC values (range across isolates)” value [9] was 0.5 to 8 µg/mL and the MIC ([10]; S. agalactiae MMX 3741, ERY^R CC^R) was 0.25 µg/mL. For the same molecule, the MIC ([10]; S. agalactiae MMX 3743, ERY^R CC^R) was 0.25 µg/mL, the MIC ([10]; S. agalactiae MMX 4077, ERY^R CC^R) was 0.25 µg/mL and the MIC ([10]; S. agalactiae MMX 4086, ERY^R CC^R) was 0.25 µg/mL. For the same molecule, the “MIC values (range across isolates)” value ([10]; macrolide-resistant S. pyogenes, clindamycin-resistant S. agalactiae) was 0.03 to 2 µg/mL, the “MIC 24 hr” value [11] was 0.5^a and the “MIC 24 hr” value [12] was 1^a. The “reduction in viable biofilm cells” value [13] was 5 log.

With C[C@@H](O)[C@H]1C(=O)N2C(C(=O)O)=C(S[C@@H]3CN[C@H](C(=O)N(C)C)C3)[C@H](C)[C@H]12 [MEM] the MIC ([14]; P. aeruginosa isolate 6322) was 16 µg/mL, the MIC ([14]; P. aeruginosa isolate 6977) was 8 µg/mL and the MIC ([14]; P. aeruginosa isolate 7745) was 16 µg/mL. For the same molecule, the MIC ([14]; P. aeruginosa isolate 8798) was 32 µg/mL, the MIC ([14]; P. aeruginosa isolate 9108) was 1 µg/mL and the MIC ([15]; B. cenocepacia isolate 0548) was 4 µg/mL. For the same molecule, the MIC ([15]; B. cenocepacia isolate 0813) was 2 µg/mL, the MIC ([15]; B. cepacia isolate 0546) was 4 µg/mL and the MIC ([15]; B. cepacia isolate 1793) was 4 µg/mL. For the same molecule, the MIC ([15]; B. multivorans isolate 1795) was 4 µg/mL, the “MIC, QC range” value [16] was “(8-64) μg/mL” and the MIC ([17]; P. aeruginosa isolate 103 (ATCC 25922), QC strain, initial MIC testing) was 1 µg/mL (≈ 2.61 µM). For the same molecule, the MIC ([17]; P. aeruginosa isolate 103 (ATCC 25922), during FIC testing, each agent tested alone for QC, one replicate) was 1 µg/mL, the MIC ([17]; P. aeruginosa isolate 1497 (TOB-R, AMK-R, CIP-I, AZT-R, COL-R), initial MIC testing) was 0.06 µg/mL (≈ 0.156 µM) and the MIC ([17]; P. aeruginosa isolate 1530 (TOB-R, AMK-R, CIP-R), initial MIC testing) was 0.5 µg/mL (≈ 1.3 µM). The MIC ([17]; P. aeruginosa isolate 1553 (TOB-R, AMK-R, CIP-R), initial MIC testing) was 0.5 µg/mL (≈ 1.3 µM), the MIC ([17]; P. aeruginosa isolate 6322 (MEM-R, TOB-R, AMK-R, CIP-R, AZT-R), initial MIC testing) was 16 µg/mL (≈ 41.7 µM) and the MIC ([17]; P. aeruginosa isolate 6977 (MEM-I, TOB-R, CIP-R, AZT-I), initial MIC testing) was 4 µg/mL (≈ 10.4 µM). It also gave an MIC ([17]; P. aeruginosa isolate 7745 (MEM-R, CIP-R, AZT-R), initial MIC testing) of 16 µg/mL (≈ 41.7 µM), an MIC ([17]; P. aeruginosa isolate 7754 (MEM-R, TOB-R, CIP-R, AZT-I), initial MIC testing) of 32 µg/mL (≈ 83.4 µM) and an MIC ([17]; P. aeruginosa isolate 7762 (MEM-I, CIP-I), initial MIC testing) of 4 µg/mL (≈ 10.4 µM). The MIC ([17]; P. aeruginosa isolate 7871 (MEM-R, AZT-I), initial MIC testing) was 8 µg/mL (≈ 20.9 µM), the MIC ([17]; P. aeruginosa isolate 7874, initial MIC testing) was 1 µg/mL (≈ 2.61 µM) and the MIC ([17]; P. aeruginosa isolate 7886 (MEM-R, CIP-R, AZT-R), initial MIC testing) was 32 µg/mL (≈ 83.4 µM). The MIC ([17]; P. aeruginosa isolate 8797 (MEM-R, TOB-R, AMK-R, CIP-R, AZT-R, COL-R), initial MIC testing) was 32 µg/mL (≈ 83.4 µM), the MIC ([17]; P. aeruginosa isolate 8798 (MEM-R, TOB-R, AMK-R, CIP-R, AZT-R, COL-R), initial MIC testing) was 64 µg/mL (≈ 167 µM) and the MIC ([17]; P. aeruginosa isolate 9108 (CIP-R, AZT-I), initial MIC testing) was 0.5 µg/mL (≈ 1.3 µM). The MIC ([18]; B. cenocepacia isolate 0548 (CIP-R)) was 4 µg/mL (≈ 10.4 µM), the MIC ([18]; B. cenocepacia isolate 0813 (CPI-I)) was 2 µg/mL (≈ 5.22 µM) and the MIC ([18]; B. cenocepacia isolate 1631) was 4 µg/mL (≈ 10.4 µM). It also gave an MIC ([18]; B. cenocepacia isolate 1783) of 4 µg/mL (≈ 10.4 µM), an MIC ([18]; B. cenocepacia isolate 8555) of 4 µg/mL (≈ 10.4 µM) and an MIC ([18]; B. cepacia isolate 0546) of 4 µg/mL (≈ 10.4 µM). The MIC ([18]; B. cepacia isolate 0547) was 2 µg/mL (≈ 5.22 µM), the MIC ([18]; B. cepacia isolate 1793) was 4 µg/mL (≈ 10.4 µM) and the MIC ([18]; B. cepacia isolate 1794) was 4 µg/mL (≈ 10.4 µM). It also gave an MIC ([18]; B. cepacia isolate 9040) of 4 µg/mL (≈ 10.4 µM), an MIC ([18]; B. multivorans isolate 1580 (CIP-R)) of 2 µg/mL (≈ 5.22 µM) and an MIC ([18]; B. multivorans isolate 1791) of 4 µg/mL (≈ 10.4 µM). For the same molecule, the MIC ([18]; B. multivorans isolate 1795 (MEM-I, CIP-R)) was 8 µg/mL (≈ 20.9 µM), the MIC ([18]; B. multivorans isolate 5665 (CIP-I)) was 2 µg/mL (≈ 5.22 µM) and the MIC ([18]; B. multivorans isolate 8952 (CIP-I)) was 2 µg/mL (≈ 5.22 µM). For the same molecule, the MIC ([19]; E. coli ATCC 25922, QC organism) was at most 0.008 µg/mL, the MIC ([19]; E. coli ATCC 35218, QC organism) was at most 0.008 µg/mL and the MIC ([19]; Escherichia coli ATCC 35218, ESBL) was at most 0.008 µg/mL. For the same molecule, the MIC ([19]; Escherichia coli ATCC BAA-2471, NDM) was over 8 µg/mL, the MIC ([19]; Escherichia coli CDC 114, ESBL/KPC) was 2 µg/mL (≈ 5.22 µM) and the MIC ([19]; Escherichia coli CDC 118, ESBL/NDM) was 0.06 µg/mL (≈ 0.156 µM). It also gave an MIC ([19]; Escherichia coli CDC 435, NDM) of over 8 µg/mL, an MIC ([19]; Escherichia coli CDC 451, KPC) of 1 µg/mL (≈ 2.61 µM) and an MIC ([19]; Escherichia coli CDC 503, ESBL/NDM) of 8 µg/mL (≈ 20.9 µM). The MIC ([19]; Escherichia coli MMX 5745, KPC) was 2 µg/mL (≈ 5.22 µM), the MIC ([19]; Escherichia coli MMX 5755, ESBL) was 0.015 µg/mL (≈ 0.0391 µM) and the MIC ([19]; Escherichia coli MMX 5756, ESBL) was at most 0.008 µg/mL. The MIC ([19]; Escherichia coli MMX 5758, ESBL) was at most 0.008 µg/mL, the MIC ([20]; Acinetobacter baumannii CDC 273, ESBL/OXA) was over 8 µg/mL and the MIC ([20]; Acinetobacter baumannii CDC 274, ESBL/OXA) was over 8 µg/mL. The MIC ([20]; Acinetobacter baumannii CDC 275, ESBL/OXA) was over 8 µg/mL, the MIC ([20]; Acinetobacter baumannii CDC 277, ESBL/OXA) was over 8 µg/mL and the MIC ([20]; Acinetobacter baumannii CDC 284, ESBL/OXA) was over 8 µg/mL. For the same molecule, the MIC ([20]; Acinetobacter baumannii CDC 307, OXA) was 8 µg/mL (≈ 20.9 µM), the MIC ([20]; Acinetobacter baumannii CDC 308, ESBL/OXA) was 8 µg/mL (≈ 20.9 µM) and the MIC ([20]; Acinetobacter baumannii CDC 311, OXA) was over 8 µg/mL. It also gave an MIC ([20]; Acinetobacter baumannii CDC 312, OXA) of 4 µg/mL (≈ 10.4 µM), an MIC ([20]; Acinetobacter baumannii CDC 313, ESBL/OXA) of over 8 µg/mL and an MIC ([20]; Acinetobacter baumannii NCTC 13304, OXA) of over 8 µg/mL.
